Legend:
Experiment in all cases: Kinome-wide inhibition profiling
Format in all cases: biochemical
NEK6 = target: T1, NEK6 (Homo sapiens, UniProt Q9HC98)
T1 construct: purchased Reaction Biology Corp
Experimental: (§1) In vitro CDK12/cyclinK assays for all compounds and in vitro kinome-wide inhibition profiling of 30d at 10 μM were performed by a CRO company (Reaction Biology Corp., San Diego, CA, USA).

PAK4 = target: T2, PAK4 (Homo sapiens, UniProt O96013)
T2 construct: purchased Reaction Biology Corp
Experimental: as §1

ARK5 = target: T3, ARK5 (Homo sapiens, UniProt O60285)
T3 construct: purchased Reaction Biology Corp
Experimental: as §1

TYRO3 = target: T4, TYRO3 (Homo sapiens, UniProt Q06418)
T4 construct: purchased Reaction Biology Corp
Experimental: as §1

FMS = target: T5, FMS (Homo sapiens, UniProt P07333)
T5 construct: purchased Reaction Biology Corp
Experimental: as §1

EPHB2 = target: T6, EPHB2 (Homo sapiens, UniProt P29323)
T6 construct: purchased Reaction Biology Corp
T6 sequence (P29323 19-1055): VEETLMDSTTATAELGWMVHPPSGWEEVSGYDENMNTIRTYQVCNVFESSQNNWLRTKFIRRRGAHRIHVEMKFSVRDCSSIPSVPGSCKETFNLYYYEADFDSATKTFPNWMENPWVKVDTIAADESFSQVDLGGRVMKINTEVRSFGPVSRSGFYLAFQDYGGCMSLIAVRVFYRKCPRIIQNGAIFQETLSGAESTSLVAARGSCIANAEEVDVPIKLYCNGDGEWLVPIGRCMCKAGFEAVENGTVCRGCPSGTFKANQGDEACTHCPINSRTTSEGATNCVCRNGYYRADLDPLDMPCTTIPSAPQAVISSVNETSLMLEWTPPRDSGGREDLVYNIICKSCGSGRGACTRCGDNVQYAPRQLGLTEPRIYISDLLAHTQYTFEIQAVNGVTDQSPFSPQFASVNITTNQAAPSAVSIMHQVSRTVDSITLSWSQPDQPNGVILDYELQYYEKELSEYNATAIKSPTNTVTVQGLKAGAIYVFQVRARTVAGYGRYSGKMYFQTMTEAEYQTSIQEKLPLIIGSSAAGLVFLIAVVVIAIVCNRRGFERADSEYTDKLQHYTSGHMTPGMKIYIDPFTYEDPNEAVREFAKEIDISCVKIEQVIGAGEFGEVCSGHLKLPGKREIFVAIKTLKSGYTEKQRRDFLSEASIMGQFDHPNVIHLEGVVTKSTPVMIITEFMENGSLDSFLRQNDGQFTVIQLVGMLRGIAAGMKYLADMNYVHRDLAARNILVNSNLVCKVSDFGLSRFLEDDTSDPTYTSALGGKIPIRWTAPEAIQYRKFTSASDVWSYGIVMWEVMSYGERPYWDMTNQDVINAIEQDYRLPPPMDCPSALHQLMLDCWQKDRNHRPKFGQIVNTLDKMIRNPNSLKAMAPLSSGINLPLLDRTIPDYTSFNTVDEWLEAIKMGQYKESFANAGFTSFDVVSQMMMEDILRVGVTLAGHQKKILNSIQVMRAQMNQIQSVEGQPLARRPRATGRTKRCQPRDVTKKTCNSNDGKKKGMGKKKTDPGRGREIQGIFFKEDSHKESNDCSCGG
Experimental: as §1

GRK5 = target: T7, GRK5 (Homo sapiens, UniProt P34947)
T7 construct: purchased Reaction Biology Corp
Experimental: as §1

PKCb2 = target: T8, PKCb2 (Homo sapiens, UniProt P05771)
T8 construct: purchased Reaction Biology Corp
Experimental: as §1

CAMK1g = target: T9, CAMK1g (Homo sapiens, UniProt Q96NX5)
T9 construct: purchased Reaction Biology Corp
Experimental: as §1

JAK1 = target: T10, JAK1 (Homo sapiens, UniProt P23458)
T10 construct: purchased Reaction Biology Corp
Experimental: as §1

PLK3 = target: T11, PLK3 (Homo sapiens, UniProt Q9H4B4)
T11 construct: purchased Reaction Biology Corp
T11 sequence (Q9H4B4 whole entry): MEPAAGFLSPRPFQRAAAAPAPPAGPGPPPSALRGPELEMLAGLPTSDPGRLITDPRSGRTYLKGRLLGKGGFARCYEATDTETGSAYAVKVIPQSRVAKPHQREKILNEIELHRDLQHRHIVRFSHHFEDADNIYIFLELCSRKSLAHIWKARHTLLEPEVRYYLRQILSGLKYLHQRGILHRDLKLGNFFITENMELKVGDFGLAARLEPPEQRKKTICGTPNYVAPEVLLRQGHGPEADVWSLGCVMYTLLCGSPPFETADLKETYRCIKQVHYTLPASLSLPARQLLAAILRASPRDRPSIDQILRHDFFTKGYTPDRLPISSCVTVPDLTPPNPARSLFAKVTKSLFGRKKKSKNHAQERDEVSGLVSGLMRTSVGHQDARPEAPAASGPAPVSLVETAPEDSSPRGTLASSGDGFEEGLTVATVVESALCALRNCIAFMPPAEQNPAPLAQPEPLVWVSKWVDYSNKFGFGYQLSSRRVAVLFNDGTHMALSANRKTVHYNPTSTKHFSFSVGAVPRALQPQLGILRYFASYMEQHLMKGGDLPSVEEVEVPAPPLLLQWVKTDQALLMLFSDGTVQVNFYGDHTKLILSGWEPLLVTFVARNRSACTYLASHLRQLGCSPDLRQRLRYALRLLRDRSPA
Experimental: as §1

TSSK3 = target: T12, TSSK3 (Homo sapiens, UniProt Q96PN8)
T12 construct: purchased Reaction Biology Corp
Experimental: as §1

CDK2/cyclinA = target: T13, CDK2/cyclinA (Homo sapiens, UniProt P24941)
T13 construct: purchased Reaction Biology Corp
Experimental: as §1

MAP3K8 = target: T14, MAP3K8 (Homo sapiens, UniProt P41279)
T14 construct: purchased Reaction Biology Corp
Experimental: as §1

CSNK1A1 = target: T15, CSNK1A1 (Homo sapiens, UniProt P48729)
T15 construct: purchased Reaction Biology Corp
Experimental: as §1

STK23 = target: T16, STK23 (Homo sapiens, UniProt Q9UPE1)
T16 construct: purchased Reaction Biology Corp
Experimental: as §1

NLK = target: T17, NLK (Homo sapiens, UniProt Q9UBE8)
T17 construct: purchased Reaction Biology Corp
Experimental: as §1

PKAC-beta = target: T18, PKAC-beta (Homo sapiens, UniProt P22694)
T18 construct: purchased Reaction Biology Corp
Experimental: as §1

WNK1 = target: T19, WNK1 (Homo sapiens, UniProt Q9H4A3)
T19 construct: purchased Reaction Biology Corp
Experimental: as §1

EPHB1 = target: T20, EPHB1 (Homo sapiens, UniProt P54762)
T20 construct: purchased Reaction Biology Corp
Experimental: as §1

TNIK = target: T21, TNIK (Homo sapiens, UniProt Q9UKE5)
T21 construct: purchased Reaction Biology Corp
Experimental: as §1

CSK = target: T22, CSK (Homo sapiens, UniProt P41240)
T22 construct: purchased Reaction Biology Corp
Experimental: as §1

BRK = target: T23, BRK (Homo sapiens, UniProt Q13882)
T23 construct: purchased Reaction Biology Corp
Experimental: as §1

MAK = target: T24, MAK (Homo sapiens, UniProt P20794)
T24 construct: purchased Reaction Biology Corp
T24 sequence (P20794 whole entry): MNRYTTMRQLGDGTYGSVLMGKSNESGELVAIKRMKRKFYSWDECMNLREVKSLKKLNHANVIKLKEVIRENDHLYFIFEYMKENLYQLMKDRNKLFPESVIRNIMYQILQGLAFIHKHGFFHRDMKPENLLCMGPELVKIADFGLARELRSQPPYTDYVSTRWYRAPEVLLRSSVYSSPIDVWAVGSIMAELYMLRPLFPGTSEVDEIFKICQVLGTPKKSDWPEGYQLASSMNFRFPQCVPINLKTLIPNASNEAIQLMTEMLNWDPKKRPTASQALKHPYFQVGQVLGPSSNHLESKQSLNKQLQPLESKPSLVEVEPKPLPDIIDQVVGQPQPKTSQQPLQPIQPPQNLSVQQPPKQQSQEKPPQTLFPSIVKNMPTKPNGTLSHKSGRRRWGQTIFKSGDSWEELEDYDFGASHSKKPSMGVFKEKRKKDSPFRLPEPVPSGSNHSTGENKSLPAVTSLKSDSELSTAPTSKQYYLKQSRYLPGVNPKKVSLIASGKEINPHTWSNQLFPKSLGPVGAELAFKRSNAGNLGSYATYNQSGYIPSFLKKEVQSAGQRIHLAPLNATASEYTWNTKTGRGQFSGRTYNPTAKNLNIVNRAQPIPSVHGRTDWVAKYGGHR
Experimental: as §1

EPHB3 = target: T25, EPHB3 (Homo sapiens, UniProt P54753)
T25 construct: purchased Reaction Biology Corp
Experimental: as §1

IGF1R = target: T26, IGF1R (Homo sapiens, UniProt P08069)
T26 construct: purchased Reaction Biology Corp
Experimental: as §1

EPHA3 = target: T27, EPHA3 (Homo sapiens, UniProt P29320)
T27 construct: purchased Reaction Biology Corp
T27 sequence (P29320 21-983): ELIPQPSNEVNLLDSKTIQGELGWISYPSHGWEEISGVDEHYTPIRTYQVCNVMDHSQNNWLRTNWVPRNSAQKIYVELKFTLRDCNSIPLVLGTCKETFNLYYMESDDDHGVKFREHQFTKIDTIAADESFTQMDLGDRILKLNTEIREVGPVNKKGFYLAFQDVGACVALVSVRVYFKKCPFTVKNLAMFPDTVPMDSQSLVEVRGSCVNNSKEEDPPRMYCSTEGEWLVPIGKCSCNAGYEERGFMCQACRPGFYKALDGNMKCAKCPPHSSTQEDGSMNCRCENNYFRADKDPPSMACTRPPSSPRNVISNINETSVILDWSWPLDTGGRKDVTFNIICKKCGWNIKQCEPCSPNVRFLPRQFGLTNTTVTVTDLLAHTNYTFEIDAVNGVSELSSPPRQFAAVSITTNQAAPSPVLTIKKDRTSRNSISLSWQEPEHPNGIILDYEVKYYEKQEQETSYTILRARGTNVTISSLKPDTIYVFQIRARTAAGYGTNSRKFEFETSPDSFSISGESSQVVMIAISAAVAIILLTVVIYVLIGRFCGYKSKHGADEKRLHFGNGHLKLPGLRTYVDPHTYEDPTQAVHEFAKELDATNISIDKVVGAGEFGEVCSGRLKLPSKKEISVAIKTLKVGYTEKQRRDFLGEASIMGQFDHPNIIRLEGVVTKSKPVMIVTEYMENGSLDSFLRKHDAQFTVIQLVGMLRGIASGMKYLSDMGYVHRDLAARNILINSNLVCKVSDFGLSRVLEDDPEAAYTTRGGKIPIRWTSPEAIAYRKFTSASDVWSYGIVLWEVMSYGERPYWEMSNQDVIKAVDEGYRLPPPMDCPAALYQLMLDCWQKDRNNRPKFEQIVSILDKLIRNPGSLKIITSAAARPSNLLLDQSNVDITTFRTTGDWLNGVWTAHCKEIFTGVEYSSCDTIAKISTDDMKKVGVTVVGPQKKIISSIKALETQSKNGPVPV
Experimental: as §1

MARK3 = target: T28, MARK3 (Homo sapiens, UniProt P27448)
T28 construct: purchased Reaction Biology Corp
Experimental: as §1

CLK2 = target: T29, CLK2 (Homo sapiens, UniProt P49760)
T29 construct: purchased Reaction Biology Corp
T29 sequence (P49760 whole entry): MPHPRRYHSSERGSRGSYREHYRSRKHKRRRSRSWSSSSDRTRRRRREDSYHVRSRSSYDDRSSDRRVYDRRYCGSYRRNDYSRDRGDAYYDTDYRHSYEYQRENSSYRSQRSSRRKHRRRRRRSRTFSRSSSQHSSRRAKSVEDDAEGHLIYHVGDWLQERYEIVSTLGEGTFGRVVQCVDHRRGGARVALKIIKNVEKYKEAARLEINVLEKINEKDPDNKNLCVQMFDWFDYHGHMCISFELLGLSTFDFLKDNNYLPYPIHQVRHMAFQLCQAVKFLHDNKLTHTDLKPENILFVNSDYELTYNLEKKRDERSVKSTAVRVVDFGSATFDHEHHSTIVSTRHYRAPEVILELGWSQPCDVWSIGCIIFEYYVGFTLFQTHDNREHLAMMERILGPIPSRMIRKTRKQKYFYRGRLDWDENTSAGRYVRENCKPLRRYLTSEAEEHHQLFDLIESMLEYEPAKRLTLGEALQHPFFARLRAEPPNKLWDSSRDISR
Experimental: as §1

DDR2 = target: T30, DDR2 (Homo sapiens, UniProt Q16832)
T30 construct: purchased Reaction Biology Corp
Experimental: as §1

DCAMKL2 = target: T31, DCAMKL2 (Homo sapiens, UniProt Q8N568)
T31 construct: purchased Reaction Biology Corp
T31 sequence (Q8N568 whole entry): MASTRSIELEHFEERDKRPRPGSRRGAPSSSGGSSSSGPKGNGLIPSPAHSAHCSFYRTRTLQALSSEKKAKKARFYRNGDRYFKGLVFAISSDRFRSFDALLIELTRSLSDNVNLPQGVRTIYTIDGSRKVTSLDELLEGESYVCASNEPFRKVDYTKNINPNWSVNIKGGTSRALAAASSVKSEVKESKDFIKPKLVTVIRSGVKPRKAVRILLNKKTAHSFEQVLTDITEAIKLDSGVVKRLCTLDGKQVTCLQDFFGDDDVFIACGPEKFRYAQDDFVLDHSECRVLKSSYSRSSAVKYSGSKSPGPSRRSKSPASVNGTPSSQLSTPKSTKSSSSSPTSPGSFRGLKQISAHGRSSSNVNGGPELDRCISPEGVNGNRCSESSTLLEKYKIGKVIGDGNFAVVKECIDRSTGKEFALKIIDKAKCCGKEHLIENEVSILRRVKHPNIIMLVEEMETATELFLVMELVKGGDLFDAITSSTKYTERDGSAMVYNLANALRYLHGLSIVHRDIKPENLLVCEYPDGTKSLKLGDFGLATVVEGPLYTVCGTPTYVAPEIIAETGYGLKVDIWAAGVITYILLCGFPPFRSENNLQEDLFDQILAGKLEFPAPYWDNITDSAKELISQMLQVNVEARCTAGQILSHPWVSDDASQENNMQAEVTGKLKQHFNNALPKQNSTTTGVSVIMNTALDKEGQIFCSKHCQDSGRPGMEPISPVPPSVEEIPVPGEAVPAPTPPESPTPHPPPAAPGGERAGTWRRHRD
Experimental: as §1

CSNK1D = target: T32, CSNK1D (Homo sapiens, UniProt P48730)
T32 construct: purchased Reaction Biology Corp
Experimental: as §1

TIE2 = target: T33, TIE2 (Homo sapiens, UniProt Q02763)
T33 construct: purchased Reaction Biology Corp
Experimental: as §1

PRKX = target: T34, PRKX (Homo sapiens, UniProt P51817)
T34 construct: purchased Reaction Biology Corp
Experimental: as §1

SNARK = target: T35, SNARK (Homo sapiens, UniProt Q9H093)
T35 construct: purchased Reaction Biology Corp
Experimental: as §1

Kit = target: T36, Kit (Homo sapiens, UniProt P10721)
T36 construct: purchased Reaction Biology Corp
Experimental: as §1

ERN1 = target: T37, ERN1 (Homo sapiens, UniProt O75460)
T37 construct: purchased Reaction Biology Corp
Experimental: as §1

AurkB = target: T38, AurkB (Homo sapiens, UniProt Q96GD4)
T38 construct: purchased Reaction Biology Corp
T38 sequence (Q96GD4 whole entry): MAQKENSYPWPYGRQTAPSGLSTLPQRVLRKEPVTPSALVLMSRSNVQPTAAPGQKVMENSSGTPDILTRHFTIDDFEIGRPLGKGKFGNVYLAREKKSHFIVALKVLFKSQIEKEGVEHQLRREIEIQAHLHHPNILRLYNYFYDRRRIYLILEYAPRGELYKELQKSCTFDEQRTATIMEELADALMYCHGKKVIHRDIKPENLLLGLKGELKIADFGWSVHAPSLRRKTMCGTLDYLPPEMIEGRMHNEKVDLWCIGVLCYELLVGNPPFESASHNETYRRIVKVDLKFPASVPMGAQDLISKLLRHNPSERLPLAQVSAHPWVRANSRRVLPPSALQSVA
Experimental: as §1

PLK2 = target: T39, PLK2 (Homo sapiens, UniProt Q9NYY3)
T39 construct: purchased Reaction Biology Corp
Experimental: as §1

BRAF = target: T40, BRAF (Homo sapiens, UniProt P15056)
T40 construct: purchased Reaction Biology Corp
Experimental: as §1

AKT3 = target: T41, AKT3 (Homo sapiens, UniProt Q9Y243)
T41 construct: purchased Reaction Biology Corp
Experimental: as §1

ALK = target: T42, ALK (Homo sapiens, UniProt Q9UM73)
T42 construct: purchased Reaction Biology Corp
Experimental: as §1

ROCK1 = target: T43, ROCK1 (Homo sapiens, UniProt Q13464)
T43 construct: purchased Reaction Biology Corp
Experimental: as §1

CCn1cnc2c(NCc3ccc(-c4ccccn4)nc3)nc(-c3ccc(N)nc3)nc21 [Compound 30d, N-([2,2′-Bipyridin]-5-ylmethyl)-2-(6-aminopyridin-3-yl)-9-ethyl-9H-purin-6-amine]
remaining activity at 10 µM (NEK6): 92.1% | remaining activity at 10 µM (PAK4): 12.9% | remaining activity at 10 µM (ARK5): 20.8% | remaining activity at 10 µM (TYRO3): 22.4% | remaining activity at 10 µM (FMS): 35.4% | inhibition at 10 µM (EPHB2): > 95% | remaining activity at 10 µM (EPHB2): 2.5% | remaining activity at 10 µM (GRK5): 91.5% | remaining activity at 10 µM (PKCb2): 39.6% | remaining activity at 10 µM (CAMK1g): 54.3% | remaining activity at 10 µM (JAK1): 92.1% | remaining activity at 10 µM (PLK3): 94.4% | remaining activity at 10 µM (TSSK3): 91.5% | inhibition at 10 µM (CDK2/cyclinA): > 95% | remaining activity at 10 µM (CDK2/cyclinA): 1.2% | remaining activity at 10 µM (MAP3K8): 102% | remaining activity at 10 µM (CSNK1A1): 26.5% | remaining activity at 10 µM (STK23): 82.8% | remaining activity at 10 µM (NLK): 24.8% | remaining activity at 10 µM (PKAC-beta): 104% | remaining activity at 10 µM (WNK1): 82.5% | remaining activity at 10 µM (EPHB1): 13.6% | remaining activity at 10 µM (TNIK): 69% | remaining activity at 10 µM (CSK): 54.8% | remaining activity at 10 µM (BRK): 46.6% | inhibition at 10 µM (MAK): > 95% | remaining activity at 10 µM (MAK): 3.3% | remaining activity at 10 µM (EPHB3): 66% | remaining activity at 10 µM (IGF1R): 58% | remaining activity at 10 µM (EPHA3): 7.8% | remaining activity at 10 µM (MARK3): 83.1% | remaining activity at 10 µM (CLK2): 11.7% | remaining activity at 10 µM (DDR2): 87.2% | remaining activity at 10 µM (DCAMKL2): 55% | remaining activity at 10 µM (CSNK1D): 10.2% | remaining activity at 10 µM (TIE2): 34.8% | remaining activity at 10 µM (PRKX): 79.2% | remaining activity at 10 µM (SNARK): 59% | remaining activity at 10 µM (Kit): 14.2% | remaining activity at 10 µM (ERN1): 50.8% | remaining activity at 10 µM (AurkB): 73% | remaining activity at 10 µM (PLK2): 107% | remaining activity at 10 µM (BRAF): 60.8% | remaining activity at 10 µM (AKT3): 96.1% | remaining activity at 10 µM (ALK): 59.7% | remaining activity at 10 µM (ROCK1): 97.2%

— article PMC9506414, “Novel 2,6,9-Trisubstituted Purines as Potent CDK Inhibitors Alleviating Trastuzumab-Resistance of HER2-Positive Breast Cancers” (Pharmaceuticals, 2022)
